From the supplement of paper PMC4121296

Experiments:
Settings in all cases: exposure: 5-72 hpf
[1] = tested on: Danio rerio embryo (fli1:egfp); test: pericardial area at 72 hpf (image area units (not stated)); higher = larger pericardial area (edema)
Procedure: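 fli1:egfp zebrafish embryos exposed 5-72 hpf to chemical (0.05-50 µM, 0.1% DMSO); pericardial area at 72 hpf measured by semi-automated MetaXpress journal (increase indicates edema).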

[2] = tested on: Danio rerio embryo (fli1:egfp); test: body length at 72 hpf (µm); higher = longer body (less growth inhibition)
Procedure: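 Transgenic fli1:egfp zebrafish embryos (one per well, 384-well plate) exposed statically from 5 to 72 hpf at 28 °C to chemical (0.05-50 µM, 0.1% DMSO); at 72 hpf anesthetized and imaged on ImageXpress; body length of live, hatched, correctly oriented embryos measured by automated MetaXpress journal. Dead/unhatched/misoriented embryos have no value.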

[3] = tested on: Danio rerio embryo (fli1:egfp); test: intersegmental vessel area normalized to body length at 72 hpf (ISV area / body length (normalized units)); higher = more vessel area
Procedure: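 fli1:egfp zebrafish embryos exposed 5-72 hpf to chemical (0.05-50 µM, 0.1% DMSO); intersegmental vessel (ISV) eGFP area quantified by MetaXpress journal at 72 hpf and normalized to body length.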

[4] = tested on: Danio rerio embryo (fli1:egfp); test: arterial (dorsal aorta) circulation score at 72 hpf (normalized DA-Max (arbitrary units)); higher = more circulation
Procedure: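 fli1:egfp zebrafish embryos exposed 5-72 hpf to chemical (0.05-50 µM, 0.1% DMSO); arterial circulation at 72 hpf quantified from stream acquisitions of the dorsal aorta by FFT-based analysis (DA-Max, normalized dorsal aorta signal); only concentrations passing survival/body-length criteria analyzed.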

[5] = tested on: Danio rerio embryo (fli1:egfp); test: heart rate at 72 hpf (beats per minute); higher = faster heart rate
Procedure: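 fli1:egfp zebrafish embryos exposed 5-72 hpf to chemical (0.05-50 µM, 0.1% DMSO) in 384-well plates; heart rate at 72 hpf quantified from stream acquisitions by semi-automated MetaXpress journal (peak counting); only embryos in concentrations passing survival/body-length criteria analyzed.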

CCOC(=O)COc1cc(-c2nn(C)c(OC(F)F)c2Cl)c(F)cc1Cl [Pyraflufen-ethyl]
Settings | arterial, [4] | body length at 72 hpf, [2] | heart rate at 72 hpf, [5] | intersegmental vessel area normalized, [3] | pericardial area at 72 hpf, [1]
0.05 µM | 10.9 | 3030 | 171 | 83.6 | 15700
0.098 µM | 8.57 | 3020 | 174 | 92.3 | 15400
0.195 µM | 10.5 | 3020 | 174 | 84.6 | 15300
0.39 µM | 9.67 | 3040 | 167 | 86.7 | 17100
0.78 µM | 10.2 | 2950 | 169 | 81.6 | 16800
1.56 µM | 7.3 | 2980 | 169 | 85.2 | 20600
3.125 µM | 4.92 | 2960 | 160 | 86.2 | 20000
6.25 µM | 3.84 | 2890 | 163 | 86 | 25300
25 µM | 3.2 | 2790 | 148 | 96.9 | 25400

CN(C)C(=S)SSC(=S)N(C)C [Thiram]
Settings | arterial, [4] | body length at 72 hpf, [2] | heart rate at 72 hpf, [5] | intersegmental vessel area normalized, [3] | pericardial area at 72 hpf, [1]
95 pM | 9.22 | 3070 | 180 | 95.8 | 11600
0.00019 µM | 11.1 | 3010 | 187 | 101 | 11600
0.00038 µM | 9.48 | 3060 | 179 | 97.6 | 12500
0.00076 µM | 10.3 | 3020 | 192 | 98.6 | 11500
0.0015 µM | 11 | 3050 | 191 | 95.6 | 11200
0.003 µM | 9.4 | 3070 | 196 | 99.4 | 12900
0.0061 µM | 8.74 | 3050 | 196 | 110 | 14600
0.0122 µM | 9.58 | 3070 | 189 | 99.1 | 12000
0.0244 µM | 11.3 | 3080 | 179 | 97.9 | 12400

CCOc1cc(Oc2ccc(C(F)(F)F)cc2Cl)ccc1[N+](=O)[O-] [Oxyfluorfen]
Settings | arterial, [4] | body length at 72 hpf, [2] | heart rate at 72 hpf, [5] | intersegmental vessel area normalized, [3] | pericardial area at 72 hpf, [1]
0.0244 µM | 12.2 | 3050 | 183 | 86.8 | 14300
0.05 µM | 15 | 3020 | 178 | 86.7 | 14500
0.098 µM | 13.5 | 2990 | 180 | 88.8 | 14900
0.195 µM | 15.8 | 2990 | 187 | 79 | 14500
0.39 µM | 14.3 | 2990 | 185 | 95.7 | 15500
0.78 µM | 13.4 | 3000 | 192 | 90.7 | 13400
1.56 µM | 14.4 | 2850 | 190 | 89.4 | 13400
3.125 µM | 12 | 2980 | 193 | 87.2 | 16200
6.25 µM | 10.5 | 2960 | 194 | 100 | 15900
12.5 µM | 7.87 | 2840 | 192 | 90.5 | 15300
25 µM | – | 2660 | – | – | –

C[C@@]1(c2ccc(Oc3ccccc3)cc2)OC(=O)N(Nc2ccccc2)C1=O (racemic) [Famoxadone]
Settings | arterial, [4] | body length at 72 hpf, [2] | heart rate at 72 hpf, [5] | intersegmental vessel area normalized, [3] | pericardial area at 72 hpf, [1]
0.05 µM | 15.7 | 2980 | 172 | 72.5 | 13400
0.098 µM | 14.7 | 2990 | 180 | 84.9 | 13700
0.195 µM | 14.5 | 2970 | 188 | 77.8 | 13500
0.39 µM | 12.7 | 2970 | 177 | 75.4 | 12100
0.78 µM | 14.9 | 2940 | 160 | 80 | 15500

CCOC(=O)C(C)OC(=O)c1cc(Oc2ccc(C(F)(F)F)cc2Cl)ccc1[N+](=O)[O-] (stereo unspecified) [Lactofen]
Settings | arterial, [4] | body length at 72 hpf, [2] | heart rate at 72 hpf, [5] | intersegmental vessel area normalized, [3] | pericardial area at 72 hpf, [1]
0.05 µM | 8.21 | 3000 | 189 | 84.8 | 13400
0.098 µM | 7.39 | 3000 | 187 | 87.9 | 17300
0.195 µM | 8.26 | 2990 | 191 | 81.5 | 15800
0.39 µM | 8.42 | 2940 | 188 | 83.3 | 15800
0.78 µM | 5.92 | 2950 | 191 | 82.4 | 19300
1.56 µM | 6.43 | 2980 | 193 | 85.2 | 19800
3.125 µM | 5.46 | 2960 | 190 | 88 | 21500
6.25 µM | 4.85 | 2910 | 188 | 92.9 | 21200
12.5 µM | 4.13 | 2910 | 187 | 99.7 | 23900
